Where two headings read alike, the source gives them in different places.
How the values were obtained:
[1] = test system: Aspergillus niger lipase; experiment: Lipase inhibition assay with pNPP substrate; type: biochemical; conditions: for inhibition of lipase activity (in words): 0.5 mmoles/litre to 1.5 mmoles/litre, pNPP as substrate; for inhibition of lipase: 1.5 mmol/litre, para-nitrophenyl palmitate (pNPP) substrate, 37°C; for lipase activity: at about 1.5mmoles/litre
Procedure: Lipase assays were performed in a 96-well, clear, flat-bottomed plate with 200 μl reaction volume. pNPP was used as a substrate with a reaction buffer of 50 mM sodium phosphate, 5 mM sodium taurocholate, and 10% isopropanol at pH 8.0 [8, 9]. Lipase assays was performed in 200 μl reaction volume and substrate conversion was monitored with a Multiskan Go spectrophotometer (Thermo Scientific) at 410 nm. All assays were run at 37°C and reported results are the average of three replicates that were blank subtracted. The Lipase inhibitory activity was expressed as percentage inhibition calculated as: % Inhibition = [(Acontrol − Atest sample)/[…]]*100.
Significant inhibition was obtained at 0.5 mmoles/litre. For all three molecules indicating structural changes begin well below this concentration. According to all binding experiments have been performed in concentration range at 50 μM to 400 μM.

[2] = test system: Aspergillus niger lipase; experiment: Fluorescence quenching of lipase (Stern-Volmer and double-logarithmic plots); type: binding; conditions: for binding affinity with Aspergillus niger lipase (order of magnitude): conclusion, unit not given; for ksv (Stern-Volmer constant): pH 7.4, ligand 50-400 μM; for kq (quenching rate constant): pH 7.4, τ0 10^-9 s
Procedure: (§1) Lipase and HSA were dialyzed against KCl- buffer (pH 7) for 24 hrs. Stock solution of lipase was prepared in 10 mM phosphate buffer at pH 7.4 to obtain a particular concentration. […] These samples were incubated at 298.0 K for about 24 hrs.
(§2) Fluorescence spectra were recorded on Hitachi F-4010 spectrofluorometer equipped with circulating water bath to maintain the temperature of the cell. The quartz cell of path length 1.0 cm and band slit of 5.0 nm were used for all experiments. The excitation wavelength was 280 nm for lipase and HSA. Emission spectra were recorded from 300–450 nm for lipase and HSA protein.
(§3) Herein, the fluorescence intensities were corrected for absorption of the exciting light and reabsorption of the emitted light to decrease the inner filter effect according to the following equation [10] (Chi & Liu, 2011): Fcorr=Fobs10^Aex+Aem/2, Where Fcorr and Fobs are corrected and experimentally measured fluorescence intensities, respectively. […] The fluorescence intensity utilized in this paper was the corrected intensity.
(§4) Emission fluorescence spectra were measured in the 300–450 nm interval, at a fixed excitation wavelength of 280 nm. Occurrence of an emission maximum at 344 nm in the fluorescence spectrum of lipase can be attributed to the presence of tryptophan residue of lipase. Even though the intrinsic fluorescence of pancreatic lipase is attributed to three amino acid residues, phenylalanine (Phe), tyrosine (Tyr), and tryptophan (Trp), the fluorescence of Phe and Tyr residues at this wavelength is negligible, so intrinsic fluorescence of the fungal enzyme is mainly due to Trp. […] Several earlier reports have shown similar fluorescence quenching of protein upon interaction with various drug molecules, without any shift in the emission maximum. The observed quenching in the protein fluorescence can be induced by a variety of molecular interactions such as rearrangement of molecules, ground-state complex formation, excited-state reactions, energy transfer and collisional quenching.
In order to gain insight into quenching mechanism involved in linalool-lipase, carvacrol- lipase and thymol- lipase interaction, or to gain further insight into the mechanism of tertiary structure we analysed the fluorescence quenching data using Stern–Volmer equation. […] S1A–S1C Fig and Table 1. gives ksv and kq values of Lipase—lin as 1.73 x 10^4 M^-1 and 1.73 x 10^13 M^-1s^-1, Lipase—car as 2.17 x 10^3 and 2.17 x 10^12, Lipase—thy as 1.76 x 10^4 and 1.76 x 10^13 respectively. […] Binding constant and number of binding sites were determined by plotting log (F0—F)/F versus log [ligand] according to equation: Log[(F0–F)/F=logKa+nlogligand] where Ka and n are binding constants and stoichiometry of association process respectively. Linear relationship is obtained from log(F− F0) / F versus log[ligand].

[3] = target: T1, Human Serum Albumin (HSA) (Homo sapiens, UniProt P02768); experiment: Fluorescence quenching of HSA (Stern-Volmer and double-logarithmic plots); type: binding; conditions: for blue shift in the emission maximum of HSA: excitation 280nm, from 342 nm, throughout the titration
T1 construct: purchased Sigma-Aldrich
Procedure: as §1, §2, §3
(§5) The HSA were excited at 280nm and spectra were taken from 300nm to […].
The plot of F0/F against [linalool] at 298K is given as S3A Fig. The values of ksv and kq could be calculated from the slope of curves. The average lifetime of the fluorophore in the absence of the ligand as 6.38 × 10^−9 s for HSA [23]. […] Ka and ‘n’ were calculated from equation: Log[(F0–F)/F] = logKa + n log[linalool].

[4] = target: T1, Human Serum Albumin (HSA); experiment: Far-UV circular dichroism of HSA; conditions: 24 hours at 298.15 K, pH 7.4, native -17.76
Procedure: CD spectra were obtained over wavelength range of 200–250 nm on Jasco-1500 CD Spectrometer equipped with peltier type temperature controller. 0.1cm quartz cell were used to measure far UV CD spectrum. The concentration of protein used was 0.2 mg/ml (lipase) and 0.35 mg/ml (HSA). Each spectrum was scanned thrice and finally average of 3 was used to analyse the results.

[5] = target: T2, lipase; experiment: Intrinsic Trp fluorescence quenching of A. niger lipase (excitation 280 nm, ligand 50-400 uM, inner-filter corrected), 10 mM phosphate pH 7.4, samples incubated at 298 K for about 24 h; Ka from double-logarithmic plot.; type: binding
T2 construct: commercial (Sigma-Aldrich), dialyzed
Procedure: as §1, §2, §3
as §4, with “quenching. […]” for “quenching.”

[6] = target: T3, HSA (Homo sapiens, UniProt P02768); experiment: UV-Vis absorption spectroscopy of HSA; type: binding; design: purchased Sigma-Aldrich; conditions: HSA 0.4mg/ml, shifted from 278 nm, 298.15 K, pH 7.4
From the text: UV-visible absorbance spectra were obtained using JASCO, V-560 spectrophotometer in the wavelength range 240 to 340 nm. The baseline was corrected for each spectrum.

[7] = target: T3, HSA; experiment: Intrinsic Trp214 fluorescence quenching of HSA (excitation 280 nm, ligand 50-400 uM, inner-filter corrected), 10 mM phosphate pH 7.4, 298 K; Ka from double-logarithmic plot.; type: binding; design: gene ALB; commercial (Sigma-Aldrich), dialyzed; conditions: read-out: Ka(M^-1) (converted)
Procedure: as §1, §2, §3, §5
The plot of F0/F against [linalool] at 298K is given as S3A Fig. The values of ksv and kq could be calculated from the slope of curves. […] Ka and ‘n’ were calculated from equation: Log[(F0–F)/F] = logKa + n log[linalool].

T1 sequence (P02768 25-609): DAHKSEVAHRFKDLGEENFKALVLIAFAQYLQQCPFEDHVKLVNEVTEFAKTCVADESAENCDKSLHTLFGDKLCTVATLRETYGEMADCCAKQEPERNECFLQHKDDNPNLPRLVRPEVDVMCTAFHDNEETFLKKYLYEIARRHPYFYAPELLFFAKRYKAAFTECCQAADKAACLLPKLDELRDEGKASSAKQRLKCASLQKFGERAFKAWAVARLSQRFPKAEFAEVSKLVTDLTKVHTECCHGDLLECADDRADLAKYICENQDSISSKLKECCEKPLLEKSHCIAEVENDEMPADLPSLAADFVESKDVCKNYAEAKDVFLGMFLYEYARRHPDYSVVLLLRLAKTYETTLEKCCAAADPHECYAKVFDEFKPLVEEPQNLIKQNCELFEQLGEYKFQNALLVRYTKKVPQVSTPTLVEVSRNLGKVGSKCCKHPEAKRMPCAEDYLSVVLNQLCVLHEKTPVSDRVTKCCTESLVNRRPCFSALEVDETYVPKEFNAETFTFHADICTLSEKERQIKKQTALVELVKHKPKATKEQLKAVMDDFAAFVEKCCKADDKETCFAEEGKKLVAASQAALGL
T3 sequence (P02768 25-609): as above

| SMILES | inhibition of lipase activity (in words) [1] | inhibition of lipase [1] | lipase activity [1] | strength of binding to lipase (in words) [2] | binding affinity with Aspergillus niger lipase (order of magnitude) [2] | ksv (Stern-Volmer constant) ([2]; lipase) [M⁻¹] | kq (quenching rate constant) ([2]; lipase) [M⁻¹ s⁻¹] | Kd [3] [µM] | n (number of binding site) ([3]; HSA) | kq (quenching rate constant) ([3]; HSA, 298K) [M⁻¹ s⁻¹] | ksv (Stern-Volmer quenching constant) ([3]; HSA, 298K, ligand 50-400 μM) [M⁻¹] | blue shift in the emission maximum of HSA [3] [nm] | MRE x 10^3 at 222nm (complex_400 μM) [4] | Ka [5] [M⁻¹] | maximum absorption peak position of ligand-HSA complex [6] [nm] | Kd [7] [µM] | further results |
| --- | --- | --- | --- | --- | --- | --- | --- | --- | --- | --- | --- | --- | --- | --- | --- | --- | --- |
| Cc1ccc(C(C)C)cc1O [carvacrol] | markedly inhibited lipase activity | approximately 50% | approximately 50% | strong binders | ~10^7 | 2170 | 2.17e+12 | ~100 | 1.29 | 2.33e+12 | 2330 | 1 | -24.91 | 4.6e+07 | 278.2 | 45.5 | Ka (binding constant) ([2]; lipase, pH 7.4, double-logarithmic plot): 4.66e+07 M⁻¹; Ka (binding constant) ([3]; HSA, double-logarithmic plot): 22000 M⁻¹ |
| C=CC(C)(O)CCC=C(C)C (stereo not shown) [linalool] | markedly inhibited lipase activity | approximately 50% | approximately 50% | weak binder | ~10^3 | 17300 | 1.73e+13 | ~100 | 1.36 | 3.32e+12 | 3320 | 2 | -23.13 | 5300 | 278.5 | 29.4 | association constant / binding affinity with HSA (order of magnitude) ([3]; unit inferred): ~10000 M⁻¹ |
| Cc1ccc(C(C)C)c(O)c1 [thymol] | markedly inhibited lipase activity | approximately 50% | approximately 50% | strong binders | ~10^9 | 17600 | 1.76e+13 |  |  |  |  |  |  | 2.6e+09 | 278.4 |  | kq (quenching rate constant) [3]: 3.21e+13 M⁻¹ s⁻¹; ksv (Stern-Volmer quenching constant) [3]: 32100 M⁻¹ |

Source: PMC9135303, “Interaction of fungal lipase with potential phytotherapeutics” (PLoS ONE, 2022)
